From ChEMBL document CHEMBL1149610, “Bicyclo[2.2.2]octyl esters of dialkylamino acids as antiprotozoals” (Bioorg Med Chem, 2007) come the findings set out here.

SMILES strings stand for the structures.

In assay [1] the test system is Trypanosoma brucei rhodesiense. The assay is described as follows: Antitrypanosomal activity against Trypanosoma brucei rhodesiense after 72 hrs by microplate assay. The class given is functional, organism-based.
The subject of a further assay is Plasmodium falciparum. Kind of assay: Antiplasmodial activity against chloroquine, pyrimethamine-resistant Plasmodium falciparum K1 after 48 hrs. In kind it is functional, organism-based. Particulars: K1, 48 h.
Assay [2] can be described thus: Selectivity index, ratio of IC50 for rat L6 cells to IC50 for Plasmodium falciparum K1. The class given is functional.
Assay [3] can be described thus: Selectivity index, ratio of IC50 for rat L6 cells to IC50 for Trypanosoma brucei rhodesiense. The class given is functional.
A further assay relates to L6. The assay is described as follows: Cytotoxicity against rat L6 cells after 72 hrs by microplate assay. The class given is cell-based. Particulars: L6, 72 h.

As for `CN(C)C12CC(OC(=O)c3ccc4c(c3)OCO4)C(C(c3ccccc3)C1)C(c1ccccc1)C2` (racemic), the figures for the IC50 (in assay [1]; in the assay on Plasmodium falciparum; in the assay with L6) were 980 nM, 340 nM and 5.32 µM, respectively. Moreover, the “Ratio IC50” value came to 15.65 in assay [2] and 5.43 in assay [3].
For `O=C(OC1CC2(N3CCCCC3)CC(c3ccccc3)C1C(c1ccccc1)C2)c1ccc2c(c1)OCO2` (racemic) the same measures were 2510 nM, 550 nM, 12.7 µM, 23.15 and 5.07.
As for `CN(C)C12CC(OC(=O)/C=C/c3ccccc3)C(C(c3ccccc3)C1)C(c1ccccc1)C2` (racemic), the IC50 in assay [1] was 830 nM; with Plasmodium falciparum it was 690 nM; with L6, 3.82 µM. Besides, the “Ratio IC50” value is listed as 5.54 in assay [2] and 4.6 in assay [3].
For `O=C(/C=C/c1ccccc1)OC1CC2(N3CCCCC3)CC(c3ccccc3)C1C(c1ccccc1)C2` (racemic) the same measures were 1410 nM, 450 nM, 10.5 µM, 23.27 and 7.43.
Take `CN(C)C12CC(OC(=O)CN3CCCC3)C(C(c3ccccc3)C1)C(c1ccccc1)C2` (racemic): the results for the “Ratio IC50” value in assay [2] and in assay [3] were 46 and 155.5, respectively.
For `CN(C)C12CC(OC(=O)C(C)(C)C)C(C(c3ccccc3)C1)C(c1ccccc1)C2` (racemic), the IC50 in assay [1] amounted to 620 nM; with Plasmodium falciparum, 420 nM; in the assay with L6 it was 5.06 µM. For the same compound, the “Ratio IC50” value in assay [2] is 12.05; in assay [3], 8.16.
For `CC(C)(C)C(=O)OC1CC2(N3CCCCC3)CC(c3ccccc3)C1C(c1ccccc1)C2` (racemic) the same measures were 2690 nM, 7930 nM, 12 µM, 1.51 and 4.46.
`CCN(CC)CC(=O)OC1CC2(N(C)C)CC(c3ccccc3)C1C(c1ccccc1)C2` (racemic): the “Ratio IC50” value in assay [2] was 11.08; in assay [3], 49.41.
For `O=C(CN1CCCC1)OC1CC2(N3CCCCC3)CC(c3ccccc3)C1C(c1ccccc1)C2` (racemic) the same measures were 34.85 and 51.19.
On to `CN(C)C12CC(OC(=O)CN3CCCCC3)C(C(c3ccccc3)C1)C(c1ccccc1)C2` (racemic), for which the “Ratio IC50” value in assay [2] is recorded as 56.27; in assay [3] it was 14.7.
For `O=C(CN1CCCCC1)OC1CC2(N3CCCC3)CC(c3ccccc3)C1C(c1ccccc1)C2` (racemic) the same measures were 38.43 and 38.43.
For `CN(C)C12CC(O)C(C(c3ccccc3)C1)C(c1ccccc1)C2` (racemic) the same measures were <8.53 and 44.92.
Turning to `CCN(CC)CC(=O)OC1CC2(N3CCCC3)CC(c3ccccc3)C1C(c1ccccc1)C2` (racemic), the figures for the “Ratio IC50” value in assay [2] and in assay [3] were 245 and 68.06, respectively.
For the compound `CCN(CC)CC(=O)OC1CC2(N3CCCCC3)CC(c3ccccc3)C1C(c1ccccc1)C2` (racemic), the “Ratio IC50” value amounted to 95.68 in assay [2] and 42.71 in assay [3].
For `O=C(CN1CCCCC1)OC1CC2(N3CCCCC3)CC(c3ccccc3)C1C(c1ccccc1)C2` (racemic) the same measures were 335.5 and 69.41.
As to `CC(=O)OC1CC2(N3CCCCC3)CC(c3ccccc3)C1C(c1ccccc1)C2` (racemic), the concentration for half-maximal inhibition (IC50) in assay [1] was 9890 nM; with Plasmodium falciparum it was > 11000 nM.
With `O=C(OC1CC2(N3CCCC3)CC(c3ccccc3)C1C(c1ccccc1)C2)c1ccc2c(c1)OCO2` (racemic), the IC50 in assay [1] was determined as 820 nM; in the assay with Plasmodium falciparum, 390 nM; in the assay with L6, 5.65 µM. Also, the “Ratio IC50” value came to 14.49 in assay [2] and 6.89 in assay [3].
For `O=C(CN1CCCC1)OC1CC2(N3CCCC3)CC(c3ccccc3)C1C(c1ccccc1)C2` (racemic) the same measures were 230 nM, 700 nM, 42.9 µM, 61.34 and 186.7.
For `CC(C)(C)C(=O)OC1CC2(N3CCCC3)CC(c3ccccc3)C1C(c1ccccc1)C2` (racemic) the same measures were 1380 nM, 990 nM, 7.62 µM, 7.7 and 5.52.
As for `CC(=O)OC1CC2(N(C)C)CC(c3ccccc3)C1C(c1ccccc1)C2` (racemic), the IC50 in assay [1] is 4750 nM; in the assay on Plasmodium falciparum, > 12500 nM.
For `CC(=O)OC1CC2(N3CCCC3)CC(c3ccccc3)C1C(c1ccccc1)C2` (racemic) the same measures were 4930 nM and > 11700 nM.
With `O=C(/C=C/c1ccccc1)OC1CC2(N3CCCC3)CC(c3ccccc3)C1C(c1ccccc1)C2` (racemic), the IC50 in assay [1] stood at 1040 nM; with Plasmodium falciparum it was 630 nM; in the assay on L6, 3.5 µM. Besides, the “Ratio IC50” value was found to be 5.56 in assay [2] and 3.37 in assay [3].
Take `C[C@@H]1CC[C@H]2[C@@H](C)C(=O)O[C@@H]3O[C@@]4(C)CC[C@@H]1[C@]32OO4` [ARTEMISININ]: in the assay with Plasmodium falciparum, the IC50 is 6.4 nM.
